US11096991B2, “Nanoreactor using polyion complex polymersomes, and method for producing same” (THE UNIVERSITY OF TOKYO, priority 2015, dated 2021)

Columns and labels:
[1] = system: α-galactosidase (α-GAL), free (unencapsulated); assay: Enzyme activity of free α-GAL, Michaelis-Menten/Lineweaver-Burk plot with Gal-AMC; format: biochemical; conditions: substrate Gal-AMC, PBS, 37° C., AMC fluorescence Ex/Em=350 nm/450 nm
Method: Enzyme activity was evaluated with respect to free α-GAL and encapsulated α-GAL, respectively. The enzyme activity of α-GAL was checked by the reaction with a substrate, α-galactosyl-β-(7-amide-4-methyl coumarin) (also referred to as “Gal-AMC”) as shown in FIG. 19B. Gal-AMC is decomposed by the enzyme activity of α-GAL to produce 7-amino-4-methyl coumarin (also referred to as “AMC”), which emits fluorescence (Ex/Em=350 nm/450 nm).
More specifically, first, PBS solutions of Gal-AMC, free α-GAL, and encapsulated α-GAL were each placed in a thermostatic chamber and allowed to stand still at 37° C. Thereafter, the Gal-AMC solution was mixed with the free α-GAL or encapsulated α-GAL solution. From the solution mixture, an aliquot (predetermined amount) was taken and immediately poured to a 96 well plate (TECAN). The plate was placed in a multiplate reader kept at 37° C. in advance and fluorescence intensity was measured periodically for a predetermined time.
The enzyme activity was evaluated by preparing the Michaelis-Menten plot and Lineweaver-Burk plot. At this time, using a calibration curve previously prepared by using an AMS standard solution, a change of fluorescence intensity was converted into the production rate of a product. In this manner, a reaction rate V was obtained. Measurement was performed by changing the substrate concentration [S] variously. […]

[2] = system: α-galactosidase (α-GAL), encapsulated in PICsome; assay: Enzyme activity of α-GAL encapsulated in PICsome, Michaelis-Menten/Lineweaver-Burk plot with Gal-AMC; format: biochemical; conditions: substrate Gal-AMC, PBS, 37° C., AMC fluorescence Ex/Em=350 nm/450 nm
Method: In the same manner as in Section 5 of Example 1, a solution containing empty PICsomes was prepared. Thereafter, 11.4 mg of α-galactosidase (hereinafter referred to as “α-GAL”) was dissolved in 5.7 mL of a 10 mM phosphate buffer (PB, pH 7.4, 0 mM NaCl) to prepare a 2 mg/mL α-GAL solution.
An aliquot (1 mL) was taken from the 2 mg/mL α-GAL solution and mixed with 1 mL of the solution containing empty PICsomes. The solution mixture was stirred by a Vortex mixer for 2 minutes (2000 rpm). Thereafter, to the solution, a PB solution (5.6 mL) containing a water soluble condensing agent, EDC (10 mg/mL) was added. The mixture was allowed to stand still overnight to crosslink a polyion complex. […] A solution of fluorescence labeled α-GAL was prepared in the same manner as above.
Enzyme activity was evaluated with respect to free α-GAL and encapsulated α-GAL, respectively. […] Gal-AMC is decomposed by the enzyme activity of α-GAL to produce 7-amino-4-methyl coumarin (also referred to as “AMC”), which emits fluorescence (Ex/Em=350 nm/450 nm).
More specifically, first, PBS solutions of Gal-AMC, free α-GAL, and encapsulated α-GAL were each placed in a thermostatic chamber and allowed to stand still at 37° C. […] The plate was placed in a multiplate reader kept at 37° C. in advance and fluorescence intensity was measured periodically for a predetermined time. […]

Km [1]: 180 µM
Km [2]: 190 µM
Structure (SMILES): Cc1cc(=O)oc2cc(N[C@H]3O[C@H](CO)[C@H](O)[C@H](O)[C@H]3O)ccc12 [Gal-AMC, α-galactosyl-β-(7-amide-4-methylcoumarin)]
